Assay results from patent publication US20020115177A1, “Regulation of human histone deacetylase” (priority 2000, published 2002).

Assays:
[1] = test system: human histone deacetylase; test: Expression of human histone deacetylase in oligonucleotide-treated HCT116 cells, by Western blotting; type: cell-based; conditions: oligonucleotide 10 μM once per day for seven days
Experimental: The cell line used for testing is the human colon cancer cell line HCT116. Cells are cultured in RPMI-1640 with 10-15% fetal calf serum at a concentration of 10,000 cells per milliliter in a volume of 0.5 ml and kept at 37° C. in a 95% air/5%CO2 atmosphere. Phosphorothioate oligoribonucleotides are synthesized on an Applied Biosystems Model 380B DNA synthesizer using phosphoroamidite chemistry. A sequence of 24 bases complementary to the nucleotides at position 1 to 24 of SEQ ID NO: 1 is used as the test oligonucleotide. As a control, another (random) sequence is used: 5'-[NT] ID NO:23). Following assembly and deprotection, oligonucleotides are ethanol-precipitated twice, dried, and suspended in phosphate buffered saline at the desired concentration. Purity of the oligonucleotides is tested by capillary gel electrophoresis and ion exchange HPLC. The purified oligonucleotides are added to the culture medium at a concentration of 10 μM once per day for seven days. […] This effect is not observed with the control oligonucleotide. After 3 to 7 days, the number of cells in the cultures is counted using an automatic cell counter. The number of cells in cultures treated with the test oligonucleotide (expressed as 100%) is compared with the number of cells in cultures treated with the control oligonucleotide.

[2] = test system: histone deacetylase (SEQ ID NO:2); test: Histone deacetylase assay with nuclear extract of recombinant HEK293 cells (3H-acetylated chicken core histones); type: biochemical, human; conditions: TSA 1 μM; 30° C. for 90 minutes; released radioactivity
Experimental: Carboxy-terminal myc tagged histone deacetylase (SEQ ID NO:2) was cloned into a pcDNA3.1 vector and transfected into HEK293 cells. Recombinant clones were isolated and analyzed for histone deacetylase (HDAC) activity using the following procedure. Eight million recombinant or control cells were rinsed in 10 ml. of cold PBS, scraped, and spun at 500× g for 5 minutes. The cell pellet was rinsed with cold PBS and transferred to an Eppendorf tube. Nuclei were prepared by lysing the cells in 1 ml of Buffer A (10 mM HEPES, pH 7.5, 10 mM KCl, 1.5mM MgCl2, 0.5% NP40 and a cocktail of protease inhibitors without EDTA) on ice for 30 minutes. The lysate was spun at 1500× g for 5 minutes, then the supernatant was discarded. The pellet was washed in Buffer A without NP40. The nuclear pellet was sonicated three times for 5 seconds each on ice in 0.5 ml of 20 mM HEPES pH7.5, 1.5mM MgCl2, 10% glycerol and a cocktail of protease inhibitors without EDTA. The nuclear lysate was spun at 100,000× g for 30 min. Fifty μl aliquots of supernantant were stored at −80° C.
A HDAC assay was carried out in 100 μL of 25mM HEPES pH 7.5 buffer containing 0.1 mg/ml BSA, 1 mM MgCl2, 0.005% Triton X-100, ^3H-acetylated chicken core histones, and varying (0.5 to 4 μg) amounts of nuclear extracts at 30° C. for 90 minutes. […] Released radioactivity was counted as a measure of HDAC activity. […]

Row | Compound | expression of human histone deacetylase as determined by Western blotting [1] | inhibition of HDAC activity of recombinant nuclear extract [2]
1 | control oligonucleotide: Control (random) sequence: 5′-TCAACTGACTAGATGTACATGGAC-5′ (SEQ ID NO:23) (TCAACTGACTAGATGTACATGGAC; listed as DNA, chemistry not fully specified) | not observed | 
2 | CC(/C=C/C(=O)NO)=C\[C@@H](C)C(=O)c1ccc(N(C)C)cc1 [TSA, Trichostatin A] |  | inhibited
